Measured values taken from publication PMC12671168, “The signal peptide of staphylococcal protein A alters the multimeric states of PepV” (Microbiology Spectrum, 2025).
Values joined by “and” are separate entries in the source; they are usually repeats but may differ in a detail not shown here. Equal entries are not always repeated. Peptide text beside a SMILES is read from it.

Legend:
[1] = molecular target: T1, PepV (staphylococcal PepV) (Staphylococcus aureus, UniProt Q5HF23); assay: Cd-ninhydrin colorimetric dipeptidase assay, […] nm; type: biochemical; details: 25 mM Tris pH 7.5, 2 mM MnCl2, 5 mM TCEP, 37 °C
T1 construct: gene SACOL1801; His-tagged (pSY273, pET16b-H6-pepV), E. coli BL21(DE3), Ni-NTA; dimer, tetramer and higher oligomers
T1 sequence (Q5HF23 1-469): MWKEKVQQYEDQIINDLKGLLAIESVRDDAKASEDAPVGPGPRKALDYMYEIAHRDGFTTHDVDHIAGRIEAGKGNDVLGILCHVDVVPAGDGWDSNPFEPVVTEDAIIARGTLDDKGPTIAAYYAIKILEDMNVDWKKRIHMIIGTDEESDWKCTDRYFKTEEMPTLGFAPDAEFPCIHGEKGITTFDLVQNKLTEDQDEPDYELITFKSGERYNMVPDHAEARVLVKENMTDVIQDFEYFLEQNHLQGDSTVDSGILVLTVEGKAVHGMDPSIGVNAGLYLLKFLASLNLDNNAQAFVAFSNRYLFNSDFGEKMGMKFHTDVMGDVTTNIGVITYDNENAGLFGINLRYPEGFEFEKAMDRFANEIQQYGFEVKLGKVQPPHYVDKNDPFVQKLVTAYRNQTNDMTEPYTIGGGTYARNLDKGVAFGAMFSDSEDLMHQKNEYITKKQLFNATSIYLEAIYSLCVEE

PepVSpn = molecular target: T2, PepVSpn (Streptococcus pneumoniae, UniProt A0A0H2UP69); assay: Cd-ninhydrin colorimetric dipeptidase assay, […] nm; type: biochemical; details: 25 mM Tris pH 7.5, 2 mM MnCl2, 5 mM TCEP, 37 °C
T2 construct: gene pepV; purified ortholog, probably His-tagged from E. coli BL21(DE3); dimer only
T2 sequence (A0A0H2UP69 1-466): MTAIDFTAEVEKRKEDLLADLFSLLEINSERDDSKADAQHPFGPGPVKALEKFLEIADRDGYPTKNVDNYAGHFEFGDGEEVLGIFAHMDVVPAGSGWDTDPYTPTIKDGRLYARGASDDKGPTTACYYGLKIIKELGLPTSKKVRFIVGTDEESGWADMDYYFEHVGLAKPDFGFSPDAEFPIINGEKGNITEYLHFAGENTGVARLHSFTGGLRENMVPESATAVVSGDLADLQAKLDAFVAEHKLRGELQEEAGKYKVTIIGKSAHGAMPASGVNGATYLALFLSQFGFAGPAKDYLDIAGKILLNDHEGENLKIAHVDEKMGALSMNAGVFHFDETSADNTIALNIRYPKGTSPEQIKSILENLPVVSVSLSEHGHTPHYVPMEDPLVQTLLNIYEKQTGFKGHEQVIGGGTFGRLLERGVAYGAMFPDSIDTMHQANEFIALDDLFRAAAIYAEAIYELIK

PepVBsub = molecular target: T3, PepVBsub (Bacillus subtilis, UniProt O34944); assay: Cd-ninhydrin colorimetric dipeptidase assay, […] nm; type: biochemical; details: 25 mM Tris pH 7.5, 2 mM MnCl2, 5 mM TCEP, 37 °C
T3 construct: gene ytjP; purified ortholog, probably His-tagged from E. coli BL21(DE3); multimers beyond dimer
T3 sequence (O34944 1-463): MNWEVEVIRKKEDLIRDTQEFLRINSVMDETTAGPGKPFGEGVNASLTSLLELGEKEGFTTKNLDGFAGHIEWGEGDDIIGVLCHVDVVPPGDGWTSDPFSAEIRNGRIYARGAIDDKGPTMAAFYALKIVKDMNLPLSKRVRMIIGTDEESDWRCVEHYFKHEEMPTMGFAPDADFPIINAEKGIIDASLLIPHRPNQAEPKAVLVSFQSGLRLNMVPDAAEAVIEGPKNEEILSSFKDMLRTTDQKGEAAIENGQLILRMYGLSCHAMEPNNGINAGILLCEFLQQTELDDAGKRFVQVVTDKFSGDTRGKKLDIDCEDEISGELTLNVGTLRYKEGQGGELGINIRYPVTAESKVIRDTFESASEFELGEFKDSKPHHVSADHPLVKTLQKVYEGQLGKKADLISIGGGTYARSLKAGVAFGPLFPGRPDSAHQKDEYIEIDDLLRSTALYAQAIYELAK

PepVEpi = molecular target: T4, PepVEpi (Staphylococcus epidermidis, UniProt Q5HNF9); assay: Cd-ninhydrin colorimetric dipeptidase assay, […] nm; type: biochemical; details: 25 mM Tris pH 7.5, 2 mM MnCl2, 5 mM TCEP, 37 °C
T4 construct: gene SERP1310; purified ortholog, probably His-tagged from E. coli BL21(DE3); multimers beyond dimer
T4 sequence (Q5HNF9 1-469): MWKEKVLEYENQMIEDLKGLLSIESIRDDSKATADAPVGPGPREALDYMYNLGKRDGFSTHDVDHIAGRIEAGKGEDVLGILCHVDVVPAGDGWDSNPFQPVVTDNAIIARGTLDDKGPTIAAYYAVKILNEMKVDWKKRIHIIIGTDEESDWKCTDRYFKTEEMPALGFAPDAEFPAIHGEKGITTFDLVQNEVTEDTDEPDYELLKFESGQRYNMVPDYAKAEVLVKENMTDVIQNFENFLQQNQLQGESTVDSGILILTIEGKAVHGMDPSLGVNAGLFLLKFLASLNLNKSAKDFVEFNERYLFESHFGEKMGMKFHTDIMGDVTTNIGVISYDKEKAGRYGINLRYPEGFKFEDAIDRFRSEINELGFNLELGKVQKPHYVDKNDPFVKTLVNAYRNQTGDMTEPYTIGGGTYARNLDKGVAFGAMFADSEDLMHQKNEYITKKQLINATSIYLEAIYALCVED

[2] = molecular target: PepV (Staphylococcus aureus), recombinant His-PepV (Staphylococcus aureus); assay: SEC; purified PepV alone or incubated with a 10-fold molar excess of peptide; Agilent SEC-3 or TSKgel Super2000 on HPLC; 0.5 M HEPES pH 7.6, 150 mM NaCl; 0.35 mL/min; absorbance at 280 nm
[3] = molecular target: PepV (Staphylococcus aureus), recombinant His-PepV (Staphylococcus aureus); assay: native gel or EMSA; purified proteins, alone or mixed with peptide or precursor (0.5 µM PepV, 10-fold molar excess or rising concentrations of SpA SP); NativePAGE 4%-16% gel, 5 mA, 4°C, silver stain
[4] = molecular target: the molecule itself; assay: as above

Molecule: C[C@H](N)C(=O)N[C@@H](C)C(=O)O [Ala-Ala] (H-Ala-Ala-OH)
- Cd-ninhydrin colorimetric dipeptidase assay, 507 nm [1]: we assessed the enzymatic activity of PepV in the presence of the SpA SP
- Cd-ninhydrin colorimetric dipeptidase assay, 507 nm (PepVSpn): performed a colorimetric ninhydrin dipeptidase assay using Ala-Ala as the substrate
- Cd-ninhydrin colorimetric dipeptidase assay, 507 nm (PepVBsub): performed a colorimetric ninhydrin dipeptidase assay using Ala-Ala as the substrate
- Cd-ninhydrin colorimetric dipeptidase assay, 507 nm (PepVEpi): performed a colorimetric ninhydrin dipeptidase assay using Ala-Ala as the substrate

Molecule: PepV (Staphylococcus aureus), recombinant His-PepV (enzyme)
- stoichiometry N [2]: 2 and 4
- stoichiometry N [3]: 2 and 4

Molecule: SpA SP (signal peptide of staphylococcal protein A)
- concentration of SpA SP at which the tetrameric and oligomeric PepV species diminish [3]: 300 nM

B1: E. coli PepT (enzyme, Escherichia coli, UniProt P29745 1-408, looked up)
chain: MDKLLERFLNYVSLDTQSKAGVRQVPSTEGQWKLLHLLKEQLEEMGLINVTLSEKGTLMATLPANVPGDIPAIGFISHVDTSPDCSGKNVNPQIVENYRGGDIALGIGDEVLSPVMFPVLHQLLGQTLITTDGKTLLGADDKAGIAEIMTALAVLQQKKIPHGDIRVAFTPDEEVGKGAKHFDVDAFDARWAYTVDGGGVGELEFENFNAASVNIKIVGNNVHPGTAKGVMVNALSLAARIHAEVPADESPEMTEGYEGFYHLASMKGTVERADMHYIIRDFDRKQFEARKRKMMEIAKKVGKGLHPDCYIELVIEDSYYNMREKVVEHPHILDIAQQAMRDCDIEPELKPIRGGTDGAQLSFMGLPCPNLFTGGYNYHGKHEFVTLEGMEKAVQVIVRIAELTAQRK
notes: PepT of Escherichia coli, found with Foldseek as a protein structurally similar to PepV; The methods speak of recombinant His-tagged proteins from E. coli BL21(DE3); the construct of PepT is not described; also called Esherichia coli PepT; source: purified
- stoichiometry N [4]: 4
